Test results: patent publication US20210330744A1, “Methods and Compositions for Treating Neurodegeneration and Fibrosis” (Temple University-Of The Commonwealth System of Higher …, priority 2017, published 2021)

Key:
NFATc1 = assay: NFAT translocation assay; format: cell-based, mouse; details: control cells (Ad-βgal), 24 hours
Protocol: MEFs were plated on coated 35-mm dishes and infected with Ad-NFATc1-GFP for 24 hours at which time live-cell images were taken followed by treatment with 10 ng m1^1 TGFP or 10 μM AngII for 24 hours. For live-cell imaging, cells were placed in a 37° C. heated chamber on a Carl Zeiss Axio Observer Z1 fluorescent microscope. Prior to imaging, MEFs were incubated with Hoechst 33342 to demarcate cell nuclei. Images were acquired in the green channel (490ex/525em) and blue channel (350ex/460em). NFAT localization was quantified as the nuclear/cytoplasmic ratio of GFP fluorescence. More than 50 cells per dish were analyzed.

mtCU = molecular target: T1, mtCU (Mus musculus, UniProt Q3UMR5+Q8VCX5); assay: Evaluation of mCa2+ uptake in permeabilized MEFs (Fura-2, Hill fit); format: cell-based
T1 construct: After treating wildtype (WT) MEFs with TGFβ for 12 hours, fibroblasts were permeabilized with digitonin; endogenous in cells; host or cells: wild-type (C57/BL6) mouse embryonic fibroblasts, digitonin-permeabilized, with or without 12 h TGFβ
T1 sequence (Q3UMR5 50-350): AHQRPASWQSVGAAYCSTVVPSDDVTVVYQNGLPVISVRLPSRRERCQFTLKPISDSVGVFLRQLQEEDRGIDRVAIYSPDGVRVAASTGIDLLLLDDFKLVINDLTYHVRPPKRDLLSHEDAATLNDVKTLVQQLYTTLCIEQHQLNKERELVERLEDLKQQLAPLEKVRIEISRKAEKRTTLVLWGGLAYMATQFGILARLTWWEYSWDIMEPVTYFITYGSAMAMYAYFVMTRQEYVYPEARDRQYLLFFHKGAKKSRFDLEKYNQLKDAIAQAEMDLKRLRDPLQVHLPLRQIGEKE
T1 sequence (Q8VCX5 34-477): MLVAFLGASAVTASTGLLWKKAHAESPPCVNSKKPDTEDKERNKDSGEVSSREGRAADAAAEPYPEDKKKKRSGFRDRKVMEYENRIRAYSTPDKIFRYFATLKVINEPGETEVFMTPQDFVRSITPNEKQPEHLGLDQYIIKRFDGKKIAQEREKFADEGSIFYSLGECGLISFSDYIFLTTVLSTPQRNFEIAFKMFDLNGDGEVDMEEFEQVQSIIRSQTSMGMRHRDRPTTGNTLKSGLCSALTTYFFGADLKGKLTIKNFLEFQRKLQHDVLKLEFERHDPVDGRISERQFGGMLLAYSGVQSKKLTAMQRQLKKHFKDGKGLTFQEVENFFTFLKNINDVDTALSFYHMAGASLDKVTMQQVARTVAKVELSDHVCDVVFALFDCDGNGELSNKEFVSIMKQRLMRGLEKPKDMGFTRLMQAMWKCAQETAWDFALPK
T1 sequence (Q9DB10 48-107 partner): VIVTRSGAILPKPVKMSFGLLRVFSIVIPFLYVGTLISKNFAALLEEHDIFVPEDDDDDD
T1 sequence (Q8CD10 23-432 partner): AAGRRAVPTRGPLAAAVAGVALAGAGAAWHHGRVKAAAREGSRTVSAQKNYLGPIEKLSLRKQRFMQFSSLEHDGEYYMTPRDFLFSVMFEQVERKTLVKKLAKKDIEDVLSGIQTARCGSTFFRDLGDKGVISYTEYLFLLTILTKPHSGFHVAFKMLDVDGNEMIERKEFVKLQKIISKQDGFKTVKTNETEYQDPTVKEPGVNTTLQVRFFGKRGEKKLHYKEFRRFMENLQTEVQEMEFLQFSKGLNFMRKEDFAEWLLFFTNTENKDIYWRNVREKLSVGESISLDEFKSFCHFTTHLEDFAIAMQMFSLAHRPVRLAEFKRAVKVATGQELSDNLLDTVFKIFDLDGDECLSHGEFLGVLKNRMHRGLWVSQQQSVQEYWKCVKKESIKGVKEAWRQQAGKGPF
Protocol: Before permeabilization, MEFs were washed in extracellular-like Ca^2+-free buffer (120 mM NaCl, 5 mM KCl, 1 mM KH2PO4, 0.2 mM MgCl2, 0.1 mM EGTA, 20 mM HEPEs-NaOH, pH 7.4). MEFs (1.5 million) were then transferred to intracellular-like medium (ICM) (120 mM KCl, 10 mM NaCl, 1 mM KH2PO4, 20 mM HEPES-Tris, protease inhibitors, 5 mM succinate, 2 μM thapsigargin, 40 μg ml^−1 digitonin, 10 μM CGP-37157 (NCLX inhibitor), pH 7.2). ICM was cleared with Chelex 100 to remove trace Ca^2+. MEFs were gently stirred and 1 μM Fura-2 was added to monitor extra-mitochondrial Ca^2+. At 20 seconds, JC-1 was added to monitor Δψ. Fluorescence signals were monitored in a temperature controlled (37° C.) multi-wavelength-excitation/dual-wavelength-emission spectrofluorometer (Delta RAM, Photon Technology Int.) using 490-nm excitation (ex)/535-nm emission (em) for the JC-1 monomer, 570-nm ex/595-nm em for the J-aggregate of JC-1, and 340- and 380-nm ex/510-nm em for Fura-2. […]
To quantify actual Ca^2+ content, a standard curve of Ca^2+ binding Fura-2 was generated from serial diluted Ca^2+ standards (0.01-120 μM) in ICM. Fura-2 fluorescence ratio was converted to [Ca^2+] by the following equation: [Ca^2+]=Kd*(R−Rmin)/(Rmax−R)*Sf2/Sb2. (Rmin (ratio in 0-Ca^2+)=1.341; Rmax (ratio at saturation)=27.915; Sf2 (380/510 reading in 0-Ca^2+)=15822.14; Sb2 (380/510 reading with Ca^2+ saturation)=1794.32). […]

MEFs [1] = assay: Metabolomic profiling of MEFs (CE-TOFMS, CE-QqQMS); format: cell-based, mouse
Protocol: Cells in a 10 cm dish were washed with 5% (w/w) mannitol (10mL for the first wash, 2 mL for the second wash) and extracted in 800 μL methanol plus 550 μL internal standard solution (Human Metabolome Technologies, HMT). Extracted solution was spun down at 2,300×g at 4° C. for 5 minutes. The supernatant was transferred into centrifugal filter units (HMT) and centrifuged at 9,100×g at 4° C. for ˜3.5 h until no liquid remained in the filter cup. Filtrate was frozen at −80° C. and shipped to HMT for analysis by CE-TOFMS and CE-QqQMS (Boston, Mass.). Filtrate was centrifugally concentrated and resuspended in 50 μl of ultrapure water immediately before the measurement.
Cationic metabolites were analyzed using an Agilent CE-TOFMS system Machine No. 3 and a fused silica capillary (i.d. 50 μm×80 cm) with Cation Buffer Solution as the electrolyte. The sample was injected at a pressure of 50 mbar for 10 seconds. The applied voltage was set at 27 kV. Electrospray ionization-mass spectrometry (ESI-MS) was conducted in the positive ion mode, and the capillary voltage was set at 4,000 V. The spectrometer was scanned from m/z 50 to 1,000.
Anionic metabolites were analyzed using an Agilent Capillary Electrophoresis System equipped with an Agilent 6460 TripleQuad LC/MS Machine No. QqQ3 and a fused silica capillary (i.d. 50 μm×80 cm) with Anion Buffer Solution as the electrolyte. The sample was injected at a pressure of 50 mbar for 25 seconds. The applied voltage was set at 30 kV. ESI-MS was conducted in the positive and negative ion mode, and the capillary voltage was set at 4,000 V for positive and 3, 500 V for negative mode.
Peaks detected in CE-TOFMs analysis were extracted using automatic integration software and those in CE-QqQMS analysis were extracted using automatic integration software in order to obtain peak information including m/z, migration time, and peak area. The peak area was then converted to relative peak area by the following equation: Relative peak area=Metabolite Peak Area/(Internal Standard Peak Area x Normalization Factor). The peaks were annotated based on the migration times in CE and m/z values determined by TOFMS. Putative metabolites were then assigned from HMT metabolite database on the basis of m/z and migration time. All metabolite concentrations were calculated by normalizing the peak area of each metabolite with respect to the area of the internal standard and by using standard curves, which were obtained by three-point calibrations. A heat map was generated using ClustVis. Unit variance was applied to rows. Rows were clustered using Manhattan distance and average linkage.

H3K27me2 [2] = assay: Western blot of methylated histone 3 lysine residues; format: cell-based, mouse; details: 0, 12 or 24 h treatment
Protocol: (§1) All protein samples were lysed by homogenization in RIPA buffer supplemented with phosphatase inhibitors and protease inhibitors. Samples were sonicated briefly and centrifuged at 5,000 g for 10 minutes. The supernatant was collected and used for further analysis. Protein amount was quantified using the Bradford Protein Assay and equal amounts of protein (10-50 μg) were run by electrophoresis on polyacrylamide Tris-glycine SDS gels. Gels were transferred to PVDF and membranes were blocked for 1 hour in Blocking Buffer followed by incubation with primary antibody overnight at 4° C. Membranes were washed in TBS-T 3 times for 5 minutes each and then incubated with secondary antibody for 1 hour at room temperature. After incubation with fluorescent secondary antibodies, membranes were washed in TB S-T 3 times for 5 minutes each and then imaged on a Licor Odyssey system. The following antibodies were used in the study: MCU (1:1,000), MCUb (1:250,), MICU1 (1:500,), MCUR1 (1:500), EMRE (1:250, Santa Cruz, sc-86337), VDAC (1:1,000), PDHE1α phospho 5293 (1:1,000), PDHE1α (1:1,000,), IDH3A (1:500), α-tubulin (1:1,000), ETC respiratory chain complexes (1:2,500), H3K4me3 (1:2,000), H3K9me3 (1:2,000), H3K27me3 (1:2,000), H3K4me2 (1:2,000), H3K9me2 (1:2,000), H3K27me2 (1:2,000), H3 (1:2000); and secondary antibodies: anti-mouse (1:12,000), anti-rabbit, (1:12,000), and anti-goat (1:12,000).

PDH E1α = assay: Western blot of phosphorylated PDH; format: cell-based, mouse; details: MEFs, 0, 24, 48, or 72 h
Protocol: as §1

H3K27me2 [3] = assay: H3K27me2 ChIP-qPCR at Postn and Pdgfra loci; format: cell-based, mouse; details: control cells (Ad-βgal), 12 hours
Protocol: ChIP was performed using the ChIP-IT High Sensitivity. Cells were fixed, lysed and sonicated for 30 minutes (30 seconds on, 30 seconds off) leading to chromatin fragments between 200 and 1200 base pairs. DNA-bound protein was immunoprecipitated using 2 μg anti-H3K27me2 or IgG. Following IP, cross-links were reversed, protein was removed, and DNA was purified. qPCR was performed with equal amounts of H3K27me2-immunoprecipitated sample, IgG-immunoprecipitated sample, and input sample. Values were normalized to input measurements and fold enrichment was calculated. qPCR primers (Table 4) were designed to target gene loci regions flanking or nearby myofibroblast transcription factor predicted binding sites according to Genomatrix-MatInspector Software analysis.

MICU1 = assay: Western blot of mtCU components in WT MEFs; format: cell-based, mouse; details: for MICU1 expression: 12 hours after treatment
Protocol: (§2) Myofibroblast differentiation was induced using 10 ng ml^−1 recombinant mouse Transforming growth factor-β (TGFβ) or 10 μM Angiotensin II (AngII,). In all experiments, FBS was reduced to 1% 24 hours prior to and during treatment with TGFβ or AngII.
as §1

5-methylcytosine (5-mC) = assay: Global DNA methylation ELISA; format: cell-based, mouse; details: MEFs
Protocol: To extract genomic DNA, cells were collected and washed with PBS followed by 2 h incubation at 60° C. in DNA isolation buffer (0.5% SDS, 100 mM NaCl, 50 mM Tris pH 8, 3 mM EDTA, 0.1 mg/mL proteinase K). DNA was extracted using chloroform followed by ethanol precipitation and dissolved in double-distilled water. DNA methylation was quantified using the MethylFlash™ Methylated DNA Quantification Kit. 100 nanograms of input DNA was used per reaction. Absorbance at 450-nm was measured using a Tecan Infinite F50 microplate reader.

MEFs [4] = assay: ECAR and OCR measurements (Seahorse XF96) in MEFs; format: cell-based, mouse; details: for increase in glycolysis from baseline: at peak (TGFβ 48 hours, AngII ~12 hours)
Protocol: as §2
A Seahorse Bioscience XF96 extracellular flux analyzer was employed to measure extracellular acidification rates (ECAR) and oxygen consumption rates (OCR). ECAR was measured using the Glycolytic Stress Test Kit and OCR was measured using the Miro Stress Test Kit. To evaluate ECAR, 20,000 MEFs/well were plated in XF media pH 7.4 without supplementation. […] To evaluate OCR, 20,000 MEFs/well were plated in XF media pH 7.4 supplemented with 10 mM glucose and 1 mM sodium pyruvate. […] After each experiment, protein concentration was measured and wells were normalized using the Wave software.

MEFs [5] = assay: α-SMA immunofluorescence (myofibroblast differentiation); format: cell-based, mouse; details: wildtype MEFs, 48 hours
Protocol: For experiments that required adenoviral gene transfer, MEFs were incubated in adenovirus for 24 hours at which time the media was changed. To knockout Mat, MEFs were transduced with adenovirus encoding Cre-recombinase (Ad-Cre) or βgalactosidase (Ad-(βgal) for 24 h and experiments were performed 5 days post-infection in order to ensure sufficient time for protein turnover. For experiments using adenovirus encoding Glyco-High, Glyco-Low, or mito-R-GECO1, cells were incubated for an additional 24 hours prior to the experiment. The following adenoviruses have previously been described: NFAT-cl-GFP, Glyco-High, Glyco-Low, mito-R-GECO1 (De Windt et al., 2000; Kurland et al., 1992; Salabei et al., 2016; Zhao et al., 2011). Glyco-High and Glyco-Low adenoviruses were made and purified by Vector Labs using cDNA for a rat liver PFKFB1 isoform of phosphofructokinase 2 (PFK2)/ fructose-2,6-bisphosphatase (FBP2). […]
MEFs were seeded on coated 35-mm dishes. […] Images were acquired in the red (590ex/617em) and blue (350ex/461em) channels. α-SMA expression was assessed by quantifying fluorescence intensity and the percentage α-SMA positive cells. More than 50 cells per dish were analyzed.

| Molecule | nuclear translocation of NFATc1 (NFATc1) | Hill coefficient of mCa2+ uptake dose response curve (mtCU; WT MEFs treated 12 hours, control cells 4.29) | mCa2+ uptake (mtCU; following delivery of ~0.5-2 μM [Ca2+], 12 hours treatment) | α-ketoglutarate (αKG) (MEFs [1]; 12 h after treatment) | F-1,6-BP (MEFs [1]; 12 h post-treatment) | citrate levels (MEFs [1]; 12 h post-treatment) | pyruvate (MEFs [1]; control MEFs 12 h post-treatment, from 1000 at baseline) [pmol/million cells] | glutamine (Gln) and glutamate (Glu) levels (MEFs [1]; control cells) | increase in αKG (MEFs [1]; treated fibroblasts) [fold] | dimethylation of H3K27 (H3K27me2) (H3K27me2 [2]) | ratio of p-PDH E1α/PDH (PDH E1α) | H3K27me2 enrichment at the Postn and Pdgfra loci (H3K27me2 [3]) | MICU1/MCU ratio (MICU1) | MICU1 expression (MICU1) | global DNA methylation (5-methylcytosine (5-mC)) | increase in glycolysis from baseline (MEFs [4]) [%] | increase in basal respiration from baseline (MEFs [4]; peaking 48 hours after treatment) [%] | percentage of α-SMA positive cells (MEFs [5]) | basal respiration (MEFs [4]) |
| --- | --- | --- | --- | --- | --- | --- | --- | --- | --- | --- | --- | --- | --- | --- | --- | --- | --- | --- | --- |
| TGFβ: recombinant mouse Transforming growth factor-β, pro-fibrotic agonist | induced nuclear translocation of NFATc1 | 10.27 | decrease | increased | significantly increased | significantly reduced | 1600 | decreased | ~2 | progressive decrease | increased | lost | rapidly increased | dramatic increase | Slight, but non-significant, decreases | > 400 | ~135 |  |  |
| COC(=O)CCC(=O)C(=O)OC [DM-αKG, dimethyl-αKG] |  |  |  |  |  |  |  |  |  |  |  |  |  |  |  |  |  | increased the percentage of α-SMA positive cells to the same extent as 48 hours of TGFβ treatment |  |
| Angiotensin II (DRVYIHPF; Angiotensin-2; UniProt P01019 25-32, looked up) [AngII, pro-fibrotic agonist] | induced nuclear translocation of NFATc1 |  |  |  |  |  |  |  |  |  | increased |  |  | similarly large increase |  | 45 |  |  | slight decrease |
